Experimental data as given in ChEMBL document CHEMBL1201862, “PubChem BioAssay data set” (2004).
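Grown in 96-well plates, cells were treated for 48 hours with each compound at five concentrations. Insufficient inhibition: endpoint recorded as highest concentration tested. At the GI50, growth is halved.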 Activity calls are given as the source filed them. Cut-off read from the data, not from the text of the source: active = GI50 up to about 1.1 µM and inactive = higher.

Key:
Experiment in all cases: growth of human tumour cells (NCI), 48 h
[1] = system: NCI-H226
[2] = system: SK-MEL-28
[3] = system: NCI-H522
[4] = system: SR
[5] = system: U-251
[6] = system: RPMI-8226
[7] = system: TK-10
[8] = system: UACC-62
[9] = system: OVCAR-5
[10] = system: SNB-19
[11] = system: Malme-3M
[12] = system: HOP-62
[13] = system: OVCAR-3
[14] = system: KM12
[15] = system: DLD-1
[16] = system: MOLT-4
[17] = system: CCRF-CEM
[18] = system: SK-OV-3
[19] = system: A498

Measured: GI50

CCOC(=O)[C@H]1Nc2c(cccc2[N+](=O)[O-])C2c3ccccc3CC21 (some centres not stated)
inactive: [1] > 100 µM | [2] > 100 µM | [3] > 100 µM | [4] 59.8 µM | [5] > 100 µM | [6] > 100 µM | [7] > 100 µM | [8] > 100 µM | [9] > 100 µM | [10] > 100 µM | [11] > 100 µM | [12] > 100 µM | [13] 40.8 µM | [14] > 100 µM | [15] > 100 µM | [16] > 100 µM

CCCCCC/C(CC(=O)CCC(=O)NCCc1ccccc1)=N\NC(=O)c1ccc2ccccc2c1O
inactive: [1] 55 µM | [2] 45.9 µM | [5] 37.9 µM | [6] 46 µM | [17] 10.3 µM | [7] 64.7 µM | [8] 22 µM | [9] 21.5 µM | [10] 59.8 µM | [11] 42.4 µM | [12] 36.7 µM | [13] 28.8 µM | [14] 35.1 µM | [15] 36.9 µM | [16] 11.5 µM

CC1(C)CCc2cc3c(cc2O1)OC(C)(C)CC3=O
inactive: [1] 34.2 µM | [3] 2.39 µM | [4] 57.5 µM | [5] 90.8 µM | [6] > 100 µM | [18] > 100 µM | [17] 76.6 µM | [8] > 100 µM | [9] 46.8 µM | [12] 23.2 µM | [13] 27.5 µM | [14] > 100 µM | [15] 97.5 µM | [16] 46.8 µM

C#Cc1c(C)c(/C=C/C(C)=C\C(=O)OC)n(C)c1C
inactive: [1] > 100 µM | [3] 50.7 µM | [19] 81.3 µM | [5] > 100 µM | [6] 18.8 µM | [18] > 100 µM | [17] 33.8 µM | [7] > 100 µM | [8] 70.8 µM | [9] > 100 µM | [10] > 100 µM | [11] > 100 µM | [12] 71.1 µM | [13] 96.2 µM | [14] 99.1 µM | [15] 45.4 µM | [16] 7.06 µM

COc1ccc(C23C(=O)c4ccccc4N2O[C@H]2C(=O)N(c4ccccc4)C(=O)[C@H]23)cc1 (some centres not stated)
inactive: [1] > 100 µM | [2] > 100 µM | [3] 14 µM | [19] > 100 µM | [5] > 100 µM | [6] > 100 µM | [18] > 100 µM | [17] > 100 µM | [7] > 100 µM | [8] > 100 µM | [9] > 100 µM | [10] > 100 µM | [11] > 100 µM | [12] > 100 µM | [13] > 100 µM | [14] > 100 µM | [15] > 100 µM | [16] > 100 µM

O=C1C2=C(c3ccccc31)C(c1ccc(Cl)cc1)NC(S)=N2 (configuration not stated)
inactive: [1] 16.9 µM | [2] 17.1 µM | [3] 20.1 µM | [19] 79.1 µM | [5] 17.5 µM | [6] 20.3 µM | [18] 69.2 µM | [17] 24.5 µM | [7] 22.8 µM | [8] 23 µM | [9] 46.7 µM | [10] 26.3 µM | [11] 28.2 µM | [12] 28.2 µM | [13] 20.1 µM | [14] 23.6 µM | [15] 22.8 µM | [16] 17.9 µM

COC1=CC(=O)c2ccccc2C1(C)C1=NC(C)(C)CO1 (configuration not stated)
inactive: [1] > 100 µM | [2] > 100 µM | [3] > 100 µM | [4] > 100 µM | [5] > 100 µM | [6] > 100 µM | [18] > 100 µM | [17] > 100 µM | [7] > 100 µM | [8] > 100 µM | [10] > 100 µM | [11] > 100 µM | [12] > 100 µM | [13] > 100 µM | [14] > 100 µM | [15] > 100 µM | [16] > 100 µM

CCCCCC1CC(C(C)=O)CN1c1ccc(F)cc1 (configuration not stated)
inactive: [2] 54.5 µM | [3] 21.2 µM | [19] 77.6 µM | [4] > 10 µM | [5] 41.5 µM | [7] 98.6 µM | [9] > 100 µM | [10] > 10 µM | [11] 54.7 µM | [13] 28.1 µM | [14] 35.6 µM | [15] 32 µM

COc1ccc(/C=N/NC(=O)NCCCN(C)C)cc1
inactive: [1] > 100 µM | [2] > 100 µM | [3] > 100 µM | [19] > 100 µM | [5] > 100 µM | [18] > 100 µM | [17] > 100 µM | [7] > 100 µM | [8] > 100 µM | [10] > 100 µM | [11] > 100 µM | [13] > 100 µM | [14] > 100 µM | [15] > 100 µM | [16] > 100 µM
